Measurements: publication PMC3692405, “Disease-associated mutations in CNGB3 promote cytotoxicity in photoreceptor-derived cells” (Molecular Vision, 2013)

Assays:
[1] = target: T1, homomeric CNGA3-only channels (Homo sapiens, UniProt Q16281); assay: Inside-out patch-clamp recording of channels expressed in Xenopus oocytes (CNGA3 only); format: biochemical; details: +80 mV, Hill fit, mean±SEM, n=9
T1 construct: expressed in transfected cells; host or cells: Xenopus laevis oocytes injected with cRNA transcribed from pGEMHE constructs
T1 sequence (Q16281 1-694): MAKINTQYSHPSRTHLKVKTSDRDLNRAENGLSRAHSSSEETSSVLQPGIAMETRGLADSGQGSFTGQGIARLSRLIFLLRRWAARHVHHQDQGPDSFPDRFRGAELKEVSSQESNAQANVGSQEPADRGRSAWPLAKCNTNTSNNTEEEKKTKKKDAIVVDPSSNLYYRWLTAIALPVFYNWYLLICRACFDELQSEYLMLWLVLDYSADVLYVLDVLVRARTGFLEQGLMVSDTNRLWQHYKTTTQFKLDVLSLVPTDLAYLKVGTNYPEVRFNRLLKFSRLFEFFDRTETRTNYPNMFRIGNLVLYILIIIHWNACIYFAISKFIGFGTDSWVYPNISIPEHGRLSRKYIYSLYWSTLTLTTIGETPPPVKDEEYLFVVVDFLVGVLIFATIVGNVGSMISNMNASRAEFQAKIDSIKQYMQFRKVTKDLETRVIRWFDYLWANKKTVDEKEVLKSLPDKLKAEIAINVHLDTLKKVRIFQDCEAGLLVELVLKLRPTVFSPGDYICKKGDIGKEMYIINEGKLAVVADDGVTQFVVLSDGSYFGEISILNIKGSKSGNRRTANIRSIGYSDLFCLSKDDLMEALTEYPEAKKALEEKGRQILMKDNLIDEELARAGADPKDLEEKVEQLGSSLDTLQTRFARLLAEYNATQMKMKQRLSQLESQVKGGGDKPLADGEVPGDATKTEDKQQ
Experimental: For heterologous expression in Xenopus laevis oocytes, identical amounts of cDNA were linearized using SphI or NheI, and capped cRNA was transcribed in vitro using the T-7 RNA polymerase mMESSAGE mMACHINE® kit (Ambion, Austin, TX). cRNA concentrations and relative amounts were determined by denaturing gel electrophoresis and KODAK 1D image analysis software (Rochester, NY), as well as by spectrophotometry. […] Oocytes were incubated in ND96 (96 mM NaCl, 2 mM KCl, 1.8 mM CaCl2, 1 mM MgCl2, and 5 mM HEPES, pH 7.6, supplemented with 10 μg/ml gentamycin).
Two to seven days after microinjection of cRNA, patch-clamp experiments were performed using the inside-out configuration with an Axopatch 200B amplifier (Axon Instruments, Foster City, CA). Recordings were made at 20–23 °C. Data were acquired using Pulse software (HEKA Elektronik, Lambrecht, Germany). Current traces were elicited by voltage steps from a holding potential of 0 mV to +80 mV, then to −80 mV and back to 0 mV. […] We measured sensitivity to block by L-cis-diltiazem (RBI, Natick, MA) applied to the intracellular face of the patch in the presence of 0.1 μM CPT-cGMP. […] Data were analyzed using Igor (Wavemetrics, Lake Oswego, OR), SigmaPlot, and SigmaStat (Systat Software Inc., San Jose, CA). […] Statistical significance was determined using a Student t test or Mann–Whitney rank sum test, and a p value of <0.05 was considered significant.

[2] = test system: channel-transfected 661W cells; assay: LDH-release cytotoxicity assay, channel-transfected cells; format: cell-based, mouse; details: CPT-cAMP alone, 0.1 to 10 µM; data not shown
Experimental: The mouse photoreceptor 661W cell line used in this study was generously provided by Dr. Al-Ubaidi (University of Oklahoma Health Sciences Center, Oklahoma City, OK). The 661W cells were routinely maintained in Dulbecco’s modified Eagle’s medium (Gibco, Carlsbad, CA), supplemented with 10% fetal bovine serum (Gemini Bioproducts, Sacramento, CA) and 1% penicillin/streptomycin (Gibco), at 37 °C in a humidified incubator with 5% CO2; cells were subcultured every 3–5 days. The 661W cells were transfected with pOPRSVI plasmids encoding human cone CNG channel subunits using Lipofectamine™ 2000 and OptiMEM (Life Technologies, Carlsbad, CA) according to the manufacturer’s protocol for cells in suspension. […]
For most experiments, the LDH Cytotoxicity Detection Kit (Roche Applied Science) was used according to the manufacturer’s protocol (see also [37]). […] Following treatment, half of the culture medium was transferred to another 96-well plate and the LDH released into the culture medium was measured to assess the number of damaged/dead cells. Cells in the original plate were then lysed and the total amount of cellular LDH was assessed. The percentage cytotoxicity was then calculated from the ratio of LDH concentration in the medium/cells, and was normalized to the percentage cytotoxicity in untreated cells transfected with control pOPRSVI plasmid only.

SMILES | Hill slope h, CPT-cGMP activation [1] | EC50 ([1]; read-out: apparent CPT-cGMP affinity K1/2, CPT-cGMP (channel activation)) [nM] | effect on relative cytotoxicity [2]
Nc1nc2c(nc(Sc3ccc(Cl)cc3)n2[C@@H]2O[C@@H]3COP(=O)(O)O[C@H]3[C@H]2O)c(=O)[nH]1 [CPT-cGMP, 8-(4-chlorophenylthio) guanosine 3′,5′-cyclic monophosphate] | 2.2±0.1 | 114 ± 7.9 | 
Nc1ncnc2c1nc(Sc1ccc(Cl)cc1)n2[C@@H]1O[C@@H]2COP(=O)(O)O[C@H]2[C@H]1O [CPT-cAMP, CPT-adenosine 3′,5′-cyclic monophosphate] |  |  | no significant increase in relative cytotoxicity
